Type in all cases: cell-based, human
For one data set, the system named is TM cells. The experiment in a line: Cell viability under PI-3K/Akt inhibitor treatment. The settings on record: 1-10 μg/mL. Here is the method:
Cells were stained as previously described (Oswald-Richter, et al., PLoS Pathogens 2007; 3: e58). For intracellular staining, T cell cultures were stimulated for 5 hours at 37° C. with PMA and Ionomycin and Golgistop (BD Biosciences). Stimulated cells were washed with PBS and stained with Fixable Viability Dye eFluor450 (eBioscience) to gate on live cells. Cells were then fixed and permeabilized by commercially available Foxp3 intracellular staining kit (eBioscience) or cytofix/cytoperm kit (BD Biosciences) as per manufacturer's protocol. Antibodies used for surface and intracellular staining included: CD45RO-[…]3), PE Cy7 or A700; […] IL-17A (IL-17)-Pacific Blue (Clone BL168), FITC or Percp Cy5.5; […]) or APC (eBioscience); […] FOXO1 rabbit monoclonal antibody; phospho-AKT ([…])-Alexa Fluor 488; Rabbit IgG isotype control-Alexa Fluor 488 (Cell Signaling, Danvers, Mass.); and CCR6-biotin (BD Biosciences). Secondary antibodies used were: Streptavidin-APC or […]5.5 (BD Biosciences), Goat anti mouse-APC (BD Biosciences), anti rabbit-Alexa 647 (Molecular Probes). All data were acquired on LSRII instrument (BD Biosciences) using FACSDiva software. Data analyses were done using Flowjo software (Treestar Inc, Ashland, Oreg.). For phospho-Akt staining, Jurkat cells were fixed with BD Cytofix buffer (BD Biosciences) pre-warmed to 37° C. for 10 minutes. […]

A further data set deals with CCR6+ IL-17- TM cells. As to the kind of experiment: IL-17 induction by cytokine culture of sorted, activated CCR6+IL-17- memory T cells (intracellular staining, FACS). The settings on record: cultured with the cytokine for 6 days; IL-23 in the absence of IL-2. Here is the method: (§1) Peripheral Blood Mononuclear Cells (PBMCs) from healthy individuals (New York Blood Center, New York, N.Y.) were prepared using Ficoll-paque plus (GE Amersham, Uppsala, Sweden). Whole blood samples from rheumatoid arthritis patients were purchased from Bioreclamation (New York, N.Y.) and were processed similar to healthy donor blood. All healthy donor and patient samples were consented prior to purchase, were none-identifiable and approved by institutional human subjects board. CD4^+ T cells were isolated using Dynal CD4 Positive Isolation Kit (Invitrogen, Carlsbad, Calif.) directly from purified PBMCs and were >99% pure. CD4^+ T cells were sorted by FACS ARIA cell sorter (BD, San Jose, Calif.) into CD45RO^+ CD25^− memory T (TM) cells. TM cells were activated either by anti-CD3 and anti-CD28 (aCD3/aCD28) coated beads (1:4 beads:cells ratio) for 18-24 hours, or by Phorbol 12-myristate 13-acetate (PMA) and ionomycin for 4 hours and further FACS sorted based on CCR6 and IL-17 expression into CCR6^− IL-17^−, CCR6^+IL-17^+, or CCR6^+IL-17^− subsets (as determined by secretion assay labeling, see below). Sorted cells (>99% pure) were cultured in serum-free Xvivo-15 medium (Lonza, Wakersville, Md.) at 37° C. and 5% CO2 for 6-7 days prior to restimulation with PMA and ionomycin (see below). […] To determine the fold expansion, CCR6^+IL-17^+ or CCR6 IL-17^− subsets were labeled with CFSE (Molecular Probes, Eugene, Oreg.) or eFluor 670 (eBioscience, San Diego, Calif.), respectively, as previously described (Oswald-Richter, et al., PLoS Biol 2004; 2: E198). […] In the experiments using PI-3K signaling inhibitors, cells were treated with PI-3K specific inhibitor, LY294002 (EMD, Gibbstown, N.J.), or Akt specific inhibitor, AKTi-1/2 (EMD), for 2 days before PMA and Ionomycin restimulation.
Manufacturer's protocols (Miltenyi Biotec) for labeling human and mouse IL-17 secreting cells were followed. Briefly, activated T-cells were washed in cold buffer (PBS+0.5% BSA+2 mM EDTA) and labeled with IL-17 catch reagent for 5 minutes on ice. […]

The test system of data set [1] is CCR6- TM cells. As to the kind of experiment: IL-17 induction by cytokine culture of sorted, activated CCR6-IL-17- memory T cells. The settings on record: cultured with the cytokine, restimulation. How it is done: (§2) Peripheral Blood Mononuclear Cells (PBMCs) from healthy individuals (New York Blood Center, New York, N.Y.) were prepared using Ficoll-paque plus (GE Amersham, Uppsala, Sweden). Whole blood samples from rheumatoid arthritis patients were purchased from Bioreclamation (New York, N.Y.) and were processed similar to healthy donor blood. All healthy donor and patient samples were consented prior to purchase, were none-identifiable and approved by institutional human subjects board. CD4^+ T cells were isolated using Dynal CD4 Positive Isolation Kit (Invitrogen, Carlsbad, Calif.) directly from purified PBMCs and were >99% pure. CD4^+ T cells were sorted by FACS ARIA cell sorter (BD, San Jose, Calif.) into CD45RO^+ CD25^− memory T (TM) cells. TM cells were activated either by anti-CD3 and anti-CD28 (aCD3/aCD28) coated beads (1:4 beads:cells ratio) for 18-24 hours, or by Phorbol 12-myristate 13-acetate (PMA) and ionomycin for 4 hours and further FACS sorted based on CCR6 and IL-17 expression into CCR6^− IL-17^−, CCR6^+IL-17^+, or CCR6^+IL-17^− subsets (as determined by secretion assay labeling, see below). Sorted cells (>99% pure) were cultured in serum-free Xvivo-15 medium (Lonza, Wakersville, Md.) at 37° C. and 5% CO2 for 6-7 days prior to restimulation with PMA and ionomycin (see below). […]

Data set [2] deals with resting CCR6+CD45RO+CD25- TM cells. The experiment in a line: Cytokine expression in resting CCR6+ TM cells cultured with cytokines, no TCR stimulation (intracellular staining). How it is done:
as §1
Cells were stained as previously described (Oswald-Richter, et al., PLoS Pathogens 2007; 3: e58). For intracellular staining, T cell cultures were stimulated for 5 hours at 37° C. with PMA and Ionomycin and Golgistop (BD Biosciences). Stimulated cells were washed with PBS and stained with Fixable Viability Dye eFluor450 (eBioscience) to gate on live cells. Cells were then fixed and permeabilized by commercially available Foxp3 intracellular staining kit (eBioscience) or cytofix/cytoperm kit (BD Biosciences) as per manufacturer's protocol. Antibodies used for surface and intracellular staining included: CD45RO-FITC; CD25-PE; IFN-γ-FITC (clone 4S. B3), PE Cy7 or A700; IL-4-APC or PE; IL-17A (IL-17)-Pacific Blue (Clone BL168), FITC or Percp Cy5.5; IL-10-APC (Biolegend); IL-22-PE (R&D) or APC (eBioscience); IL-21-PE (clone 22URT1, eBioscience); FOXO1 rabbit monoclonal antibody; phospho-AKT (Ser473)-Alexa Fluor 488; Rabbit IgG isotype control-Alexa Fluor 488 (Cell Signaling, Danvers, Mass.); and CCR6-biotin (BD Biosciences). Secondary antibodies used were: Streptavidin-APC or PercpCy5.5 (BD Biosciences), Goat anti mouse-APC (BD Biosciences), anti rabbit-Alexa 647 (Molecular Probes). All data were acquired on LSRII instrument (BD Biosciences) using FACSDiva software. Data analyses were done using Flowjo software (Treestar Inc, Ashland, Oreg.). For phospho-Akt staining, Jurkat cells were fixed with BD Cytofix buffer (BD Biosciences) pre-warmed to 37° C. for 10 minutes. After spinning down, the cells were permeablilzed with ice-cold BD Phosflow Perm buffer III (BD Biosciences) on ice for 30 minutes and were stained with phospho-antibody.

The test system of data set [3] is CCR6- TM cells. As to the kind of experiment: Cytokine expression in resting CCR6- TM cells cultured with IL-7. The settings on record: stimulated with IL-7. Here is the method:
as §2

Another data set has as its system Klf2. As to the kind of experiment: Klf2 mRNA by RT-qPCR in TM cells. The settings on record: stimulation with IL-7 alone. Here is the method: as §2, with “CD4^+ T cells were sorted by FACS ARIA cell sorter (BD, San Jose, Calif.) into CD45RO^+ CD25^− memory T (TM) cells.” left out, “below).” for “below). Sorted cells (>99% pure) were cultured in serum-free Xvivo-15 medium (Lonza, Wakersville, Md.) at 37° C. and 5% CO2 for 6-7 days prior to restimulation with PMA and ionomycin (see below).”
Purified T cells (1×10^5) were snap frozen in liquid nitrogen for total RNA isolation. […] The extracted RNA was then reverse transcribed into cDNA and quantified using Taqman Cell to CT kit (Applied Biosystems, Carlsbad, Calif.). […] Data was acquired and analyzed on ABI 7500 sequence detection system. […]
For orientation: Quantitative PCR measures a nucleic acid by following its amplification.

For a further data set, the system named is CCR6+ TM cells. As to the kind of experiment: Cytokine gene expression by quantitative nuclease protection assay (qNPA). The settings on record: IL-7 stimulation.

The values below come from patent publication US8992933B2, “Methods for activating T cells and modulating an immune response” (New York University, priority 2011, dated 2015).

Turning to `O=c1cc(N2CCOCC2)oc2c(-c3ccccc3)cccc12` [LY294002], in the data set on TM cells, the cell viability entry is reported as “without adversely affecting cell viability”.
Consider IL-7: γc-cytokine (R&D Systems), for which, in the data set with CCR6+ IL-17- TM cells, the “de novo IL-17 expression in CCR6+ IL-17- T cells” value (“de novo IL-17 expression” for short) is recorded as “induced similar levels of IL-17 expression”. Besides, the “IL-17 expression in CCR6- TM cells” value in the data set with CCR6- TM cells [1] is listed as “neither IL-7 nor IL-15 induced IL-17 expression”. Moreover, the “expression of IL-21” value in data set [2] (CCR6+ or CCR6- TM cells upon stimulation with IL-7) is listed as “slightly reduced”. In addition, in data set [2] (IL-7 for 10 days), the “enhancement of IL-17 expression compared to the same cells ex vivo (day 0)” value was “more than 3 fold” and the “enhancement of IL-22 expression compared to the same cells ex vivo (day 0)” value was “more than 3 fold”. For the same molecule, the “increase of double cytokine-producing cells (IL-22 or IFNγ co-expressed with IL-17)” value in data set [2] (IL-7 stimulation) is recorded as “more than 5 fold”. Further, in data set [2] (resting CCR6+ or CCR6- TM cells cultured with IL-7), the “impact on IFNγ production” value was “almost no impact”. For the same molecule, in the data set on CCR6- TM cells [3], the “IL-17 or IL-22 expression in CCR6- TM cells” value was “failed to express IL-17 or IL-22”. In addition, the “Klf2 expression in resting CCR6+ TM cells” value in the data set on Klf2 is “decreased”. In the data set with CCR6+ TM cells, the Ccl20 expression entry is “neither significantly induced” and the “expression of non-Th17 related cytokines (Il2, Ifng, Tnf)” value was “not influenced”.
Take IL-4: another γc-cytokine: in data set [2] (stimulation with the single cytokine), the “IL-17/IL-22 (Th17 cytokine) expression in resting CCR6+ TM cells” value was “did not promote Th17 cytokine production”.
As to IL-15: γc-cytokine (R&D Systems), the “de novo IL-17 expression” value in the data set on CCR6+ IL-17- TM cells is “induced similar levels of IL-17 expression”. Moreover, the “IL-17 expression in CCR6- TM cells” value in the data set on CCR6- TM cells [1] is “neither IL-7 nor IL-15 induced IL-17 expression”.

B1: IL-23: cytokine (R&D Systems) (protein, UniProt Q9NPF7 20-189; P29460 23-328, looked up)
Interleukin-23 subunit alpha: RAVPGGSSPAWTQCQQLSQKLCTLAWSAHPLVGHMDLREEGDEETTNDVPHIQCGDGCDPQGLRDNSQFCLQRIHQGLIFYEKLLGSDIFTGEPSLLPDSPVGQLHASLLGLSQLLQPEGHHWETQQIPSLSPSQPWQRLLLRFKILRSLQAFVAVAARVFAHGAATLSP
Interleukin-12 subunit beta: IWELKKDVYVVELDWYPDAPGEMVVLTCDTPEEDGITWTLDQSSEVLGSGKTLTIQVKEFGDAGQYTCHKGGEVLSHSLLLLHKKEDGIWSTDILKDQKEPKNKTFLRCEAKNYSGRFTCWWLTTISTDLTFSVKSSRGSSDPQGVTCGAATLSAERVRGDNKEYEYSVECQEDSACPAAEESLPIEVMVDAVHKLKYENYTSSFFIRDIIKPDPPKNLQLKPLKNSRQVEVSWEYPDTWSTPHSYFSLTFCVQVQGKSKREKKDRVFTDKTSATVICRKNASISVRAQDRYYSSSWSEWASVPCS
As to B1, the “de novo IL-17 expression” value in the data set with CCR6+ IL-17- TM cells was “did not influence IL-17 expression”. Besides, in data set [2] (IL-7 (20 ng/ml)+IL-23 (20 ng/ml) for 10 days), the “synergy with IL-7 to further induce IL-17 or IL-22 expression” value is recorded as “did not significantly synergize”.
